Experimental findings from patent EP0745083B1, “2-HETEROARYL-5,11-DIHYDRO-6H-DIPYRIDO [3,2-b:2',3'-e][1,4]DIAZEPINES AND THEIR USE IN THE PREVENTION OR TREATMENT OF HIV INFECTION” (BOEHRINGER INGELHEIM PHARMACEUTICALS INC., priority 1994, dated 1995) are described below.

What is called CC50 is the concentration giving 50% cytotoxicity. A higher CC50 goes with better tolerance by the cells. What is called inhibition is how much of the control response was suppressed.

Data set [1] is described as follows: MTT assay (cytotoxicity). In kind it is cell-based. As to conditions: human; H9 cells; five days incubation. As for the experimental part:
In order to roughly assess the cytotoxicity of the compounds provided by the invention, several such compounds were tested in the MTT Assay described below. Compounds having a relatively high CC50 are preferred.
The MTT [3-(4,5-dimethylthiazol-2-yl)-2,5 diphenyl tetrazolium bromide) assay is based on cleavage of tetrazolium bromide by metabolically active cells, resulting in a highly quantitative blue color. This assay has been previously described (1) but has been optimized for the purposes of the testing reported herein.
The H9 cell line (2), an established human lymphoma suspension cell line grown in RPMI 1640 supplemented with 10% fetal bovine serum, is used as the target cell line in the assay. Cells (100µL) are plated in microtest plate wells at a concentration of 10^5 cells per mL in the presence of varying concentrations of inhibitor. The cells are incubated at 37°C in a humidified CO2 incubator. Five days later, 20µL of MTT (5mg/mL in RPMI 1640, sonicated, 0.2 micron filtered, and stored at 4°C) is added to each well. After 4 hours additional incubation at 37°C, 60µL of Triton-X is added to each well and thoroughly mixed to aid the solubilization of the crystals. Absolute ethanol (5µL) is added to each well and the resulting mixture is incubated for 30 minutes at 60°C and immediately read on a plate reader (Dynatech) at a wavelength of 570nm.
Data from this assay are used to generate a nonlinear regression analysis which yields an CC50.
For orientation: Tetrazolium dyes change colour on reduction, which living cells bring about.

The target of data set [2] is T1, HIV-1 RT wild type (WT) enzyme (Human immunodeficiency virus type 1 group M subtype B, UniProt P03367).
T1 construct: Reverse transcriptase enzyme from the LAV strain of Human Immunodeficiency Virus (HIV-1) (1) was isolated from the bacterial strain JM109; made in house; host or cells: E. coli JM109 (clone pBRTprt1+ in vector pIBI21, lac promoter)
The data set is described as follows: Reverse Transcriptase (RT) Assay, wild type enzyme (RNA-dependent DNA polymerase activity). The format is biochemical, Human Immunodeficiency Virus (HIV-1). As to conditions: 1 µM compound, read-out: Reverse Transciptase Assay % inhibition (1 µM) WT. The source says:
Utilizing the Reverse Transcriptase (RT) Assay described below, compounds can be tested for their ability to inhibit the RNA-dependent DNA polymerase activity of HIV-1 RT. Certain specific compounds described in the Examples which appear below, were so tested.
(§1) Among the enzymes for which Human Immunodeficiency Virus (HIV-1) encodes is a reverse transcriptase (1), so-named because it transcribes a DNA copy from an RNA template. This activity can be quantitatively measured in a cell-free enzyme assay, which has been previously described (2), and is based upon the observation that reverse transcriptase is able to use a synthetic template [poly r(C) primed with oligo d(G)] to transcribe a radio-labelled, acid-precipitable DNA strand utilizing ^3H-dGTP as a substrate. The assay described below utilizes the wild type (WT) enzyme, which is the predominant form of the enzyme observed in patients infected with HIV-1. Utilization of mutant RT eraymes (Y181C and Y181L, prepared by site-directed mutagenesis in which the tyrosine residue at codon 181 has been replaced by a cysteine or a leucine residue, respectively) and analogous assay conditions allows compounds to be evaluated for their effectiveness at inhibiting these mutant enzymes.
Reverse transcriptase enzyme from the LAV strain of Human Immunodeficiency Virus (HIV-1) (1) was isolated from the bacterial strain JM109 (3) expressing the DNA clone pBRTprt1+ (2) which is under the control of the lac promotor in the expression vector pIBI21 (4). An overnight culture grown in 2XYT medium (37°C, 225 rpm) (5) supplemented with 100 µg/mL ampicillin for positive selection is inoculated at a 1:40 dilution into M9 medium supplemented with 10µg/mL thiamine, 0.5% casamino acids, and 50 µg/mL ampicillin (5). The culture is incubated (37°C, 225 rpm) until it reaches an OD540 of 0.3-0.4. At that time the repressor inhibitor IPTG (isopropyl β-D-thiogalactopyranoside) is added to 0.5mM, and the mixture is incubated for 2 additional hours. Bacteria are pelleted, resuspended in a 50mM Tris, 0.6mM EDTA, 0.375M NaCl buffer and digested by the addition of lysozyme (1mg/mL) for 30 minutes on ice. The cells are lysed by the addition of 0.2% NP-40 and brought to 1M NaCl.
After removal of the insoluble debris by centrifugation, the protein is precipitated by the addition of 3 volumes of saturated aqueous ammonium sulfate. The enzyme is pelleted, resuspended in RT buffer (50mM Tris pH 7.5, 1mM EDTA, 5mM DTT, 0.1% NP-40, 0.1M NaCI, and 50% glycerol), and stored at -70°C for further use.
The 2X concentrated stock reaction mixture is aliquoted and stored at -20°C. The mixture is stable and thawed for use in each assay. This enzyme assay has been adapted to a 96 well microtiter plate system, and has been previously described (6). Tris buffer (50 mM, pH 7.4), vehicle (solvent diluted to match the compound dilution), or compounds in vehicle are dispensed into 96-well microtiter plates (10µL/well; 3 wells/ compound). The HIV-1 RT enzyme is thawed, diluted in 50mM Tris pH 7.4 so that fifteen µL of diluted enzyme contain 0.001 Unit (one unit is that amount of enzyme to transform 1 micromole of substrate per minute at 25°C), and fifteen µL are dispensed per well. Twenty µL of 0.12-0.5M EDTA are added to the first three wells of the microtiter plate. EDTA chelates the Mg^++ present and prevents reverse transcription. This group serves as background polymerization which is subtracted from all other groups. Twenty-five ul of the 2X reaction mixture are added to all wells and the assay is allowed to incubate at room temperature for 60 minutes. The assay is terminated by precipitating the DNA in each well with 50µL of 10% trichloracetic acid (TCA) (10% w/v) in sodium pyrophosphate (1% w/v). The microtiter plate is incubated for 15 minutes at 4°C and the precipitate is fixed onto #30 glass fiber paper (Schleicher & Schuell) using a Skatron semi-automatic harvester. […]

The target in data set [3] is T2, HIV-1 RT Y181C (Human immunodeficiency virus type 1 group M subtype B, UniProt P03367, Y780C).
T2 construct: Utilization of mutant RT eraymes (Y181C and Y181L, prepared by site-directed mutagenesis); made in house
As to the kind of experiment: Reverse Transcriptase (RT) Assay, Y181C mutant enzyme. The note with it: 1 µM compound, read-out: Reverse Transciptase Assay % inhibition (1 µM) Y181C. The format is biochemical, Human Immunodeficiency Virus (HIV-1).
From the text: as §1
The 2X concentrated stock reaction mixture is aliquoted and stored at -20°C. The mixture is stable and thawed for use in each assay. This enzyme assay has been adapted to a 96 well microtiter plate system, and has been previously described (6). Tris buffer (50 mM, pH 7.4), vehicle (solvent diluted to match the compound dilution), or compounds in vehicle are dispensed into 96-well microtiter plates (10µL/well; 3 wells/ compound). The HIV-1 RT enzyme is thawed, diluted in 50mM Tris pH 7.4 so that fifteen µL of diluted enzyme contain 0.001 Unit (one unit is that amount of enzyme to transform 1 micromole of substrate per minute at 25°C), and fifteen µL are dispensed per well. Twenty µL of 0.12-0.5M EDTA are added to the first three wells of the microtiter plate. EDTA chelates the Mg^++ present and prevents reverse transcription. This group serves as background polymerization which is subtracted from all other groups. Twenty-five ul of the 2X reaction mixture are added to all wells and the assay is allowed to incubate at room temperature for 60 minutes. The assay is terminated by precipitating the DNA in each well with 50µL of 10% trichloracetic acid (TCA) (10% w/v) in sodium pyrophosphate (1% w/v). The microtiter plate is incubated for 15 minutes at 4°C and the precipitate is fixed onto #30 glass fiber paper (Schleicher & Schuell) using a Skatron semi-automatic harvester. The filters are then washed with additional TCA (5%) containing sodium pyrophosphate (1%), rinsed with aqueous ethanol (70%), dried, and transferred to scintillation vials (6). Each vial receives 2 mL of scintillation cocktail and is counted in a Beckman beta counter. The calculation for percent inhibition is as follows: % inhibition =(CPM Mean Test Value - CPM Mean Control Value X100)/(CPM Mean Control Value) [formula]

The target in data set [4] is T3, HIV-1 RT Y188L (Human immunodeficiency virus type 1 group M subtype B, UniProt P03367, Y787L).
T3 construct: effective against the reverse transcriptase of many mutant viruses; made in house
The data set is described as follows: Reverse Transcriptase (RT) Assay, Y188L mutant enzyme. As to conditions: 1 µM compound. The format is biochemical, Human Immunodeficiency Virus (HIV-1).

Molecules are shown by their SMILES.

With `CCCN1c2ncccc2C(=O)N(C)c2ccc(-c3cn[nH]c3)nc21` [Example 5, 5,11-Dihydro-5-methyl-11-n-propyl-2-(4-pyrazolyl)-6H-dipyrido[3,2-b:2',3'-e][1,4]diazepin 6-one], the CC50 at 120 h in data set [1] is more than 60 µM. Besides, the inhibition at 1 µM in data set [2] and in data set [3] was 90% throughout. In data set [4], the “Reverse Transciptase Assay % inhibition (1 µM) Y188L” value was determined as 63%.

In data set [1], `CCCN1c2nc(-c3cn[nH]c3)ccc2NC(=O)c2cccnc21` [Example 4, 5,11-Dihydro-11-n-propyl-2-(4-pyrazolyl)-6H-dipyrido[3,2-b:2',3'-e][1,4]diazepin-6-one] gave a CC50 at 120 h of more than 60 µM. Further, the inhibition at 1 µM in data set [2] was 60%; in data set [3], 54%. Also, the “Reverse Transciptase Assay % inhibition (1 µM) Y188L” value in data set [4] turned out to be 29%.

`CCN1c2ncccc2C(=O)N(C)c2ccc(-c3c[nH]c4ccccc34)nc21` [Example 28, 5,11-Dihydro-11-ethyl-2-(indol-3-yl)-5-methyl-6H-dipyrido[3,2-b:2',3'-e][1,4]diazepin-6-one] registered a CC50 at 120 h in data set [1] of more than 15 µM. Also, the figures for the inhibition at 1 µM in data set [2] and in data set [3] were 96% and 93%, respectively. The “Reverse Transciptase Assay % inhibition (1 µM) Y188L” value in data set [4] is 72%.

Turning to `CCN1c2ncccc2C(=O)N(C)c2ccc(-c3c[nH]c(C(=O)O)c3)nc21` [Example 21, 2-(2-Carboxypyrrol-4-yl)-5,11-dihydro-11-ethyl-5-methyl-6H-dipyrido[3,2-b:2',3'-e][1,4]-diazepin-6-one], the inhibition at 1 µM in data set [2] turned out to be 33%; in data set [3], 28%. The “Reverse Transciptase Assay % inhibition (1 µM) Y188L” value in data set [4] was found to be 46%.

As for `CCN1c2ncccc2C(=O)N(C)c2ccc(-c3cnn(CC)c3)nc21` [Example 2, 5,11-Dihydro-11-ethyl-2-(1-ethylpyrazol-4-yl)-5-methyl-6H-dipyrido[3,2-b:2',3'-e][1,4]-diazepin-6-one], the CC50 at 120 h in data set [1] is more than 60 µM. Also, the results for the inhibition at 1 µM in data set [2] and in data set [3] were 67% and 72%, respectively. In addition, the “Reverse Transciptase Assay % inhibition (1 µM) Y188L” value in data set [4] is listed as 13%.

For the molecule `CCN1c2ncccc2C(=O)N(C)c2ccc(-c3cnn(C(C)=O)c3)nc21` [Example 8, 2-(1-Acetylpyrazol-4-yl)-5,11-dihydro-11-ethyl-5-methyl-6H-dipyrido[3,2-b:2',3'-e][1,4] diazepin-6-one], the inhibition at 1 µM in data set [2] is 96%; in data set [3], 80%. In data set [4], the “Reverse Transciptase Assay % inhibition (1 µM) Y188L” value was determined as 80%.

With `CCN1c2ncccc2C(=O)N(C)c2ccc(-c3cc[nH]c3C#N)nc21` [Example 18, 2-(2-Cyanopyrrol-3-yl)-5,11-dihydro-11-ethyl-5-methyl-6H-dipyrido[3,2-b:2',3'-e][1,4]-diazepin-6-one], the inhibition at 1 µM was 87% in data set [2] and 82% in data set [3]. Also, in data set [4], the “Reverse Transciptase Assay % inhibition (1 µM) Y188L” value is on record as 57%.

`CCN1c2ncccc2C(=O)N(C)c2ccc(-c3c[nH]c(C#N)c3)nc21` [Example 19, 2-(2-Cyanopyrrol-4-yl)-5,11-dihydro-11-ethyl-5-methyl-6H-dipyrido[3,2-b:2',3'-e][1,4]-diazepin-6-one]: the inhibition at 1 µM was determined as 91% in data set [2] and 75% in data set [3]. The “Reverse Transciptase Assay % inhibition (1 µM) Y188L” value in data set [4] was found to be 55%.
